Laboratory results from US8829014B2, “Thiazole and thiophene analogues, and their use in treating autoimmune diseases and cancers” (Board of Supervisors of Louisiana State University and …, priority 2006, dated 2014).

Tests used:
carageenan-induced edema = assay: Carrageenan-induced rat paw edema test (anti-inflammatory activity); format: in vivo, Sprague-Dawley rats
How it was run: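 Edema was raised by sub-plantar injection of 1% carrageenan into the right hind paw, 1 h after dosing 18 h-fasted male/female Sprague-Dawley rats (150-250 g) with 50 mg/kg p.o. in 0.1% CMC. Swelling was measured by displacement 3 h later and expressed as % protection against saline control.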

AP-1 = assay: PMA-induced AP-1 luciferase expression in HEK cells; format: cell-based; conditions: luciferase in HEK/AP-1 cells, as described in Example 398; for inhibition at 1 µM: AP1, 1 uM
NF-κB = assay: TNF-α-induced NF-κB-dependent luciferase expression in HEK cells; format: cell-based; conditions: luciferase in HEK/NF-κB cells, as described in Example 398; for inhibition at 1 µM: Homo sapiens, HEK293, 1 uM, read-out: NFkB inhibition @ 1 uM
[1] = Rattus norvegicus, po, 3 h, rat paw edema, 50 mg/kg, reading 3 hours after carrageenan; [(Control−Test)/Control]×100%; read-out: % Protection P
[2] = rat paw edema, 50 mg/kg, reading 3 hours after carrageenan; [(Control−Test)/Control]×100%

Molecule | inhibition in vivo at 50 mg/kg (carageenan-induced edema; [1]) | inhibition at 1 µM (AP-1) | inhibition at 1 µM (NF-κB) | % Protection P (carageenan-induced edema; [2]) | AP-1 inhibition @ 1 uM (AP-1) | NFkB inhibition @ 1 uM (NF-κB) | % Protection P (carageenan-induced edema; rat paw edema, 50 mg/kg, reading 3 hours after carrageenan; [(Control−Test)/Control]×100%; 50 mg/kg)
O=c1c2ccccc2nc(-c2cc(-c3ccncc3)c(N3CCOCC3)s2)n1-c1ccc(Cl)cc1 [Example 313, 3-(4-Chloro-phenyl)-2-(5-morpholin-4-yl-4-pyridin-4-yl-thiophen-2-yl)-3H-quinazolin-4-one] | 52% | 32% | 68% |  |  |  | 
COc1ccc(-n2c(-c3cc(-c4ccc(S(C)(=O)=O)cc4)c(N4CCOCC4)s3)nc3ccccc3c2=O)cc1 [Example 303, 2-[4-(4-Methanesulphonyl-phenyl)-5-morpholin-4-yl-thiophen-2-yl]-3-(4-methoxy-phenyl)-3H-quinazolin-4-one] | 53% | 10% | 60% |  |  |  | 
O=C(c1cccnc1)c1cc(-c2ccc(Cl)cc2)c(N2CCOCC2)s1 [Example 86, [4-(4-Chloro-phenyl)-5-morpholin-4-yl-thiophen-2-yl]-pyridin-3-yl-methanone] | 28.1% | 15.2% | 3.6% |  |  |  | 
CS(=O)(=O)c1ccc(C(=O)c2cc(-c3ccc(Cl)cc3)c(N3CCOCC3)s2)cc1 [Example 84, [4-(4-Chloro-phenyl)-5-morpholin-4-yl-thiophen-2-yl]-(4-methansulfonyl-phenyl)-methanone] | 23% | 30.9% | -11.7% |  |  |  | 
CSc1ccc(-c2cc(-c3nc4ccccc4c(=O)n3-c3ccccc3C)sc2N2CCOCC2)cc1 [Example 282, 2-[4-(4-Methylsulfanylphenyl)-5-morpholin-4-yl-thiophen-2-yl]-3-0-tolyl-3H-quinazolin-4-one] |  |  |  | 51% | −18 | 53 | 
O=C(c1cccnc1)c1sc(N2CCN(C(=O)c3ccco3)CC2)nc1-c1ccco1 [Example 376, {2-[4-(Furan-2-carbonyl)-piperazin-1-yl]-4-furan-2-yl-thiazol-5-yl}-pyridin-3-yl-methanone] | 33% | 45.9% | -14.1% |  |  |  | 
COc1c(C)cc(-c2cc(-c3ccncc3)c(N3CCOCC3)s2)nc1C [Example 100, 4-[5-(5-Methoxy-4,6-dimethyl-pyridin-2-yl)-3-pyridin-4-yl-thiophen-2-yl]-morpholine] | 54.2% | 47.4% | 5.21% |  |  |  | 
Cc1ccc(C(=O)c2sc(N3CCN(C(=O)c4ccco4)CC3)nc2-c2ccco2)cc1 [Example 371, {2-[4-(Furan-2-carbonyl)-piperazin-1-yl]-4-furan-2-yl-thiazol-5-yl}-p-tolyl-methanone] | 34% | 25.6% | 10.4% |  |  |  | 
Cc1ccc(C(=O)c2cc(-c3ccncc3)c(N3CCOCC3)s2)cc1 [Example 103, (5-Morpholin-4-yl-4-pyridin-4-yl-thiophene-2-yl)-p-tolyl-methanone] | -30.8% | 4.35% | 10.3% |  |  |  | 
Bis-[4-(4-chloro-phenyl)-5-morpholin-4-yl-thiophen-2-yl]-methanone [Example 114] |  |  |  | 30.55% | −70.59 | −39.23 | 
COc1ccc(Nc2nc(N)c(C(=O)c3ccccn3)s2)cc1 [Example 351, ([4-Amino-2-(4-methoxy-phenylamino)-thiazol-5-yl]-pyridin-2-yl-methanone)] | 27% | 51.5% | -35.9% |  |  |  | 
COc1ccc(C(=O)c2cc(-c3ccc(S(C)(=O)=O)cc3)c(N3CCOCC3)s2)cc1 [Example 56, [4-(4-Methanesulfonyl-phenyl)-5-morpholin-4-yl-thiophene-2-yl]-(4-methoxy-phenyl)-methanone] | 77.8% | 76.1% | 18.1% |  |  |  | 
COc1c(C)cc(C(=O)c2cc(-c3ccc(NC(C)=O)cc3)c(N3CCOCC3)s2)nc1C [Example 64, N-{4-[5-(5-Methoxy-4,6-dimethyl-pyridine-2-carbonyl)2-morpholin-4-yl-thiophene-3-yl]-phenyl}-acetamide] | 49% | 26.2% | -4.95% |  |  |  | 
O=c1c2ccccc2nc(-c2cc(-c3ccccc3)c(N3CCOCC3)s2)n1-c1ccc(Cl)cc1 [Example 309, 3-(4-Chloro-phenyl)-2-(5-morpholin-4-yl-4-phenyl-thiophen-2-yl)-3H-quinazolin-4-one] | 66% | 2% | 0% |  |  |  | 
Cc1ccc(C(=O)c2sc(Nc3ccc(Cl)cc3)nc2NC(=O)Nc2ccc(F)cc2)cc1 [Example 356, 1-[2-(4-Chloro-phenylamino)-5-(4-methyl-benzoyl)-thiazol-4-yl]-3-(4-fluoro-phenyl)-urea] | 69.5% | 48.4% | 54.6% |  |  |  | 
Cc1cccc(-n2c(-c3cc(-c4ccncc4)c(N4CCOCC4)s3)nc3ccccc3c2=O)c1 [Example 289, 2-(5-Morpholin-4-yl-4-pyridin-4-yl-thiophen-2-yl)-3-m-tolyl-3H-quinazolin-4-one] | 30% | 35% | 42% |  |  |  | 
CC(=O)Nc1ccc(-c2cc(-c3nc4ccccc4c(=O)n3-c3cccc(C)c3)sc2N2CCOCC2)cc1 [Example 286, N-{4-[2-Morpholin-4-yl-5-(4-oxo-3-m-tolyl-3-,4-dihydro-quinazolin-2-yl)-thiophene-3-yl]-phenyl}-acetamide] |  |  |  | 52% | 13 | 35 | 
O=c1c2ccccc2nc(-c2cc(-c3ccc(Cl)cc3)c(N3CCOCC3)s2)n1-c1ccccc1 [Example 273, 2-[4-(4-Chloro-phenyl)-5-morpholin-4-yl-thiophen-2-yl]-3-phenyl-3H-quinazolin-4-one] | 0% | -17% | -35% |  |  |  | 
COc1cccc(-n2c(-c3cc(-c4ccc(S(C)(=O)=O)cc4)c(N4CCOCC4)s3)nc3ccccc3c2=O)c1 [Example 300, 2-[4-(4-Methanesulphonyl-phenyl)-5-morpholin-4-yl-thiophen-2-yl]-3-(3-methoxy-phenyl)-3H-quinazolin-4-one] | 48% | -4% | 20% |  |  |  | 
CSc1ccc(C(=O)c2cc(-c3ccc(NC(C)=O)cc3)c(N3CCOCC3)s2)cc1 [Example 71, N-{4-[5-(4-Methansulfanyl-benzoyl)-2-morpholin-4-yl-thiophene-3-yl]-phenyl}-acetamide] |  |  |  | 2.5% | 27.75 | 7.6 | 
COc1ccc(Nc2nc(N)c(C(=O)c3ccc(Cl)cc3Cl)s2)cc1 [Example 346, ([4-Amino-2-(4-methoxy-phenylamino)-thiazol-5-yl]-(2,4-dichloro-phenyl)-methanone)] | 28.3% | 64.6% | -4.13% |  |  |  | 
CSc1ccc(C(=O)c2cc(-c3cccnc3)c(N3CCOCC3)s2)cc1 [Example 107, (4-Methylsulfanyl-phenyl)-(5-morpholin-4-yl-4-pyridin-3-yl-thiophen-2-yl)-methanone] |  |  |  |  | 19.05 | 1.69 | −42.44%
